Test results published in patent US8735588B2, “Nematocidal sulfonamides” (E I Du Pont De Nemours and Company, priority 2009, dated 2014).

Structure (SMILES)	melting point
CCc1ccc(Cl)c(S(=O)(=O)NC(=O)c2cn3cc(C(F)(F)F)cc(Cl)c3n2)c1 [Compound 356, 8-chloro-N-[(2-chloro-5-ethylphenyl)sulfonyl]-6-(trifluoromethyl)imidazo[1,2-a]pyridine-2-carboxamide]	> 250 °C
CCn1cc(S(=O)(=O)NC(=O)c2cn3cc(C(F)(F)F)cc(Cl)c3n2)c(C)n1 [Compound 357, 8-chloro-N-[(1-ethyl-3-methyl-1H-pyrazol-4-yl)sulfonyl]-6-(trifluoromethyl)-imidazo[1,2-a]pyridine-2-carboxamide]	251 to 252 °C
Cc1cc(S(=O)(=O)NC(=O)c2cn3cc(C(F)(F)F)cc(Cl)c3n2)c(C)cc1C#N [Compound 479]	185 to 186 °C
Cc1cc(S(=O)(=O)NC(=O)c2cn3cc(C(F)(F)F)cc(Cl)c3n2)c(C)cc1C#N [Compound 19, 8-chloro-N-[(4-cyano-2,5-dimethylphenyl)sulfonyl]-6-(trifluoromethyl)imidazo[1,2-a]pyridine-2-carboxamide]	244 to 245 °C
Cc1cc(S(=O)(=O)[N-]C(=O)c2cn3cc(C(F)(F)F)cc(Cl)c3n2)c(C)cc1C#N.[Na+] [Compound 477]	> 250 °C
COc1ccc(Cl)c(S(=O)(=O)[N-]C(=O)c2cn3cc(C(F)(F)F)cc(Cl)c3n2)c1.[Na+] [Compound 478]	> 250 °C
